Results from patent US20150344540A1, “NOVEL GLP-1 RECEPTOR AGONISTS WITH CHOLESTEROL EFFLUX ACTIVITY” (NOVO NORDISK A/S, priority 2012, published 2015).
Like-named read-outs stand apart in the source and are kept apart here. Where a SMILES comes first, the peptide text is derived from it. Where no end group is shown, it is not given here. [ ]: non-standard residue; d: D form. Aib = CC(C)(N)C(=O)O

Tests used:
human GLP-1 receptor = human GLP-1 receptor (Homo sapiens, UniProt P43220); assay: Functional GLP-1 receptor assay, in vitro potency (CRE luciferase; whole cells); type: cell-based
[1] = test system: Mouse monocyte/macrophage cell line, RAW 264.7; assay: Cholesterol efflux assay (3H-cholesterol, macrophage cell line); type: cell-based; conditions: RAW 264.7, 4 hrs incubation, 0.1% human serum albumin; for 4 h Cholesterol Efflux Emax: ABCA1-mediated efflux; for EC50: read-out: 4 h Cholesterol Efflux EC50, ABCA1-mediated efflux (CPT-cAMP induced minus non-induced)
[2] = GLP1R CRE luc 1% HSA EC50 Mean Value, BHK cells expressing human GLP-1 receptor, 1% HSA
[3] = BHK cells expressing human GLP-1 receptor, 0% HSA, read-out: GLP1R CRE luc 0% HSA EC50 Mean Value

Sequence of human GLP-1 receptor (P43220 24-463): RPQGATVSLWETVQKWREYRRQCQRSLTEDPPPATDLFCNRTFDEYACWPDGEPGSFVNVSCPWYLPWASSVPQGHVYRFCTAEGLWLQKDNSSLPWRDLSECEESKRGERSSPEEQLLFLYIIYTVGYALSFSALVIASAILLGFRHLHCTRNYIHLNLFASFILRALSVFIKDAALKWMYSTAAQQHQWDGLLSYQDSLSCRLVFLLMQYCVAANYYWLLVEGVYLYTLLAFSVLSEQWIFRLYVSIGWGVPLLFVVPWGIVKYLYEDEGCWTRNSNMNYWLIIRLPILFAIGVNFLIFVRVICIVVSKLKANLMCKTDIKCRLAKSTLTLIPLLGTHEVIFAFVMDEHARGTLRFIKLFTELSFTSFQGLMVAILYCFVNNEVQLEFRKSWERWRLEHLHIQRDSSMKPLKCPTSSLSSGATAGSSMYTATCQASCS

With CC[C@H](C)[C@H](NC(=O)[C@H](Cc1ccccc1)NC(=O)[C@H](CCC(=O)O)NC(=O)[C@H](CCCCN)NC(=O)[C@@H](NC(=O)[C@H](C)NC(=O)[C@H](CCC(=O)O)NC(=O)CNC(=O)[C@H](CCC(=O)O)NC(=O)[C@H](CC(C)C)NC(=O)[C@H](Cc1ccc(O)cc1)NC(=O)[C@H](CO)NC(=O)[C@H](CO)NC(=O)[C@@H](NC(=O)[C@H](CC(=O)O)NC(=O)[C@H](CO)NC(=O)[C@@H](NC(=O)[C@H](Cc1ccccc1)NC(=O)[C@@H](NC(=O)CNC(=O)[C@H](CCC(=O)O)NC(=O)C(C)(C)NC(=O)[C@@H](N)Cc1c[nH]cn1)[C@@H](C)O)[C@@H](C)O)C(C)C)C(C)C)C(=O)N[C@@H](C)C(=O)N[C@@H](Cc1c[nH]cn1)C(=O)N[C@@H](CC(C)C)C(=O)N[C@H](C(=O)N[C@@H](CCC(=O)O)C(=O)N[C@@H](CCCCN)C(=O)NC(C)(C)C(=O)N[C@@H](CCCCN)C(=O)N[C@@H](CCC(=O)O)C(=O)N[C@@H](Cc1ccccc1)C(=O)N[C@@H](CC(C)C)C(N)=O)C(C)C [Compound 17, [Aib8,Glu23,Val25,His31,Glu34,Lys35,Aib36,Lys37]-GLP-1-(7-37)-peptidyl-Glu-Phe-Leu amide] (H-H[Aib]EGTFTSDVSSYLEGEAVKEFIAHLVEK[Aib]KEFL-NH2) the EC50 (human GLP-1 receptor; [2]) was 0.02 nM and the “4 h Cholesterol Efflux Emax” value [1] was 102%.

With CC[C@H](C)[C@H](NC(=O)[C@H](Cc1ccccc1)NC(=O)[C@H](CCC(=O)O)NC(=O)[C@H](CCCCN)NC(=O)[C@@H](NC(=O)[C@H](C)NC(=O)[C@H](CCC(=O)O)NC(=O)CNC(=O)[C@H](CCC(=O)O)NC(=O)[C@H](CC(C)C)NC(=O)[C@H](Cc1ccc(O)cc1)NC(=O)[C@H](CO)NC(=O)[C@H](CO)NC(=O)[C@@H](NC(=O)[C@H](CC(=O)O)NC(=O)[C@H](CO)NC(=O)[C@@H](NC(=O)[C@H](Cc1ccccc1)NC(=O)[C@@H](NC(=O)CNC(=O)[C@H](CCC(=O)O)NC(=O)C(C)(C)NC(=O)[C@@H](N)Cc1c[nH]cn1)[C@@H](C)O)[C@@H](C)O)C(C)C)C(C)C)C(=O)N[C@@H](C)C(=O)N[C@@H](Cc1c[nH]c2ccccc12)C(=O)N[C@@H](CC(C)C)C(=O)N[C@H](C(=O)N[C@@H](CCC(=O)O)C(=O)N[C@@H](CCCCN)C(=O)N[C@H](C(=O)N[C@@H](CCCCN)C(=O)N[C@@H](CCC(=O)O)C(=O)N[C@@H](Cc1ccccc1)C(=O)N[C@@H](Cc1ccccc1)C(N)=O)C(C)C)C(C)C [Compound 121, [Aib8,Glu23,Val25,Glu34,Lys35,Val36,Lys37]-GLP-1-(7-37)-peptidyl-Glu-Phe-Phe amide] (H-H[Aib]EGTFTSDVSSYLEGEAVKEFIAWLVEKVKEFF-NH2) the EC50 (human GLP-1 receptor; [2]) was 0.372 nM and the “4 h Cholesterol Efflux Emax” value [1] was 109%.

For CC[C@H](C)[C@H](NC(=O)[C@H](Cc1ccccc1)NC(=O)[C@H](CCC(=O)O)NC(=O)[C@H](CCCCN)NC(=O)[C@@H](NC(=O)[C@H](C)NC(=O)[C@H](CCC(=O)O)NC(=O)CNC(=O)[C@H](CCC(=O)O)NC(=O)[C@H](CC(C)C)NC(=O)[C@H](Cc1ccc(O)cc1)NC(=O)[C@H](CO)NC(=O)[C@H](CO)NC(=O)[C@@H](NC(=O)[C@H](CC(=O)O)NC(=O)[C@H](CO)NC(=O)[C@@H](NC(=O)[C@H](Cc1ccccc1)NC(=O)[C@@H](NC(=O)CNC(=O)[C@H](CCC(=O)O)NC(=O)C(C)(C)NC(=O)[C@@H](N)Cc1c[nH]cn1)[C@@H](C)O)[C@@H](C)O)C(C)C)C(C)C)C(=O)N[C@@H](CCC(N)=O)C(=O)N[C@@H](Cc1c[nH]c2ccccc12)C(=O)N[C@@H](CC(C)C)C(=O)N[C@H](C(=O)N[C@@H](CCC(=O)O)C(=O)N[C@@H](CCCCN)C(=O)NC(C)(C)C(=O)N[C@@H](CCCCN)C(=O)N[C@@H](CCC(=O)O)C(=O)N[C@@H](Cc1ccccc1)C(=O)N[C@@H](CC(C)C)C(N)=O)C(C)C [Compound 83, [Aib8,Glu23,Val25,Gln30,Glu34,Lys35,Aib36,Lys37]-GLP-1-(7-37)-peptidyl-Glu-Phe-Leu amide] (H-H[Aib]EGTFTSDVSSYLEGEAVKEFIQWLVEK[Aib]KEFL-NH2), the EC50 (human GLP-1 receptor; [2]) was 0.042 nM and the “4 h Cholesterol Efflux Emax” value [1] was 97%.

With CC(C)C[C@H](NC(=O)[C@H](Cc1ccccc1)NC(=O)[C@H](CCC(=O)O)NC(=O)[C@H](CCCCN)NC(=O)C(C)(C)NC(=O)[C@H](CCCCN)NC(=O)[C@H](CCC(=O)O)NC(=O)[C@@H](NC(=O)[C@H](CC(C)C)NC(=O)[C@H](Cc1c[nH]c2ccccc12)NC(=O)[C@H](CCC(N)=O)NC(=O)[C@@H](NC(=O)[C@H](Cc1ccccc1)NC(=O)[C@H](CCC(=O)O)NC(=O)[C@H](CCCCN)NC(=O)[C@@H](NC(=O)[C@H](C)NC(=O)[C@H](CCC(=O)O)NC(=O)CNC(=O)[C@H](CCC(=O)O)NC(=O)[C@H](CC(C)C)NC(=O)[C@H](Cc1ccc(O)cc1)NC(=O)[C@H](CO)NC(=O)[C@H](CO)NC(=O)[C@@H](NC(=O)[C@H](CC(=O)O)NC(=O)[C@H](CO)NC(=O)[C@@H](NC(=O)[C@H](Cc1ccccc1)NC(=O)[C@@H](NC(=O)CNC(=O)[C@H](CCC(=O)O)NC(=O)C(C)(C)NC(=O)[C@@H](N)Cc1c[nH]cn1)[C@@H](C)O)[C@@H](C)O)C(C)C)C(C)C)C(C)C)C(C)C)C(N)=O [Compound 65, [Aib8,Glu23,Val25,Val29,Gln30,Glu34,Lys35,Aib36,Lys37]-GLP-1-(7-37)-peptidyl-Glu-Phe-Leu amide] (H-H[Aib]EGTFTSDVSSYLEGEAVKEFVQWLVEK[Aib]KEFL-NH2; N-terminus assumed) the EC50 (human GLP-1 receptor; GLP1R CRE luc 1% HSA EC50 Mean Value) was 0.037 nM, the “4 h Cholesterol Efflux Emax” value [1] was 96% and the EC50 [1] was 410 nM.

CC[C@H](C)[C@H](NC(=O)[C@H](Cc1ccccc1)NC(=O)[C@H](CCC(=O)O)NC(=O)[C@H](CCCCN)NC(=O)[C@@H](NC(=O)[C@H](C)NC(=O)[C@H](CCC(=O)O)NC(=O)CNC(=O)[C@H](CCC(=O)O)NC(=O)[C@H](CC(C)C)NC(=O)[C@H](Cc1ccc(O)cc1)NC(=O)[C@H](CO)NC(=O)[C@H](CO)NC(=O)[C@@H](NC(=O)[C@H](CC(=O)O)NC(=O)[C@H](CO)NC(=O)[C@@H](NC(=O)[C@H](Cc1ccccc1)NC(=O)[C@@H](NC(=O)CNC(=O)[C@H](CCC(=O)O)NC(=O)C(C)(C)NC(=O)[C@@H](N)Cc1c[nH]cn1)[C@@H](C)O)[C@@H](C)O)C(C)C)C(C)C)C(=O)N[C@@H](C)C(=O)N[C@@H](Cc1c[nH]c2ccccc12)C(=O)N[C@@H](CC(C)C)C(=O)N[C@H](C(=O)N[C@@H](CCC(=O)O)C(=O)N[C@@H](CCCCN)C(=O)N[C@H](C(=O)N[C@@H](CCCCN)C(=O)N[C@@H](CCC(=O)O)C(=O)N[C@H](C(=O)N[C@@H](CC(C)C)C(N)=O)C(C)C)C(C)C)C(C)C [Compound 120, [Aib8,Glu23,Val25,Glu34,Lys35,Val36,Lys37]-GLP-1-(7-37)-peptidyl-Glu-Val-Leu amide] (H-H[Aib]EGTFTSDVSSYLEGEAVKEFIAWLVEKVKEVL-NH2; N-terminus assumed) was tested, and the EC50 (human GLP-1 receptor; GLP1R CRE luc 0% HSA EC50 Mean Value) was 0.198 nM, the “4 h Cholesterol Efflux Emax” value [1] was 142% and the EC50 [1] was 380 nM.

“HAEGTFTSDLSKQMEEEAVREFIEWLKNKVLEFL-NH2 [Compound 69, [Ala2,Glu21,Lys29,Val30,Leu31,Glu32,Phe33,Leu34]-Exendin-4-(1-34)-peptide amide]” was tested, and the EC50 (human GLP-1 receptor; [3]) was 0.031 nM, the EC50 (human GLP-1 receptor; [2]) was 0.02 nM and the EC50 [1] was 410 nM.

With “H-HAEGTFTSDVSSYLEGEAVREFIAWLVERVREFLEK-OH [Compound 138]” the EC50 (human GLP-1 receptor; [3]) was 0.041 nM, the EC50 (human GLP-1 receptor; [2]) was 0.017 nM and the “4 h Cholesterol Efflux Emax” value [1] was 96%.
